Measured values published in patent US20230132256A1, “COMBINATION THERAPY” (ADC THERAPEUTICS SA, priority 2018, published 2023).

System: CT26 syngeneic model (subcutaneous CT26 tumors)
Test: In vivo efficacy study testing combination of sur301 (sADC×25) with gemcitabine in the CT26 syngeneic model
Parameters: species or system female BALB/c mice
Conditions: Gemcitabine 80 mg/kg i.p. q3d×4 (Days 1, 4, 7, 10), single agent, animals of n=10/group
Method: On the day of implant, cultured CT26 cells were harvested during log phase growth and resuspended in PBS at a concentration of 3×10^6 cells/mL. Tumors were initiated by subcutaneously implanting 3×10^5 CT26 cells (0.1 mL suspension) into the right flank of each test animal. Tumors were monitored as their volumes approached the target range of 80-120 mm^3. Tumor were measured in two dimensions using calipers, and volume was calculated using the formula:
Tumor Volume (mm^3)=w2×l/2
where w=width and l=length, in mm, of the tumor. Tumor weight may be estimated with the assumption that 1 mg is equivalent to 1 mm3 of tumor volume.
Fifteen days after tumor cell implantation, on Day 1 of the study, animals were sorted into groups (n=10/group) with individual tumor volumes of 75 to 144 mm^3, and group mean tumor volumes of 104-106 mm^3.
All doses were administered intraperitoneally (i.p.). The dosing volume was 0.2 mL per 20 grams of body weight (10 mL/kg), and was scaled to the body weight of each individual animal.
Gemcitabine was administered at 80 mg/kg q3d×4 which corresponded to Days 1, 4, 7 and 10.
The antibody component of ADC×25 specifically binds human CD25. […]
Tumors were measured using calipers twice per week, and each animal was euthanized when its tumor reached the endpoint volume of 2000 mm^3 or at the end of the study (Day 56), whichever came first.
Response Table Criteria: • Treatment may cause partial regression (PR) or complete regression (CR) of the tumor in an animal. • In a PR response, the tumor volume is 50% or less of its Day 1 volume for three consecutive measurements during the course of the study, and equal to or greater than 13.5 mm3 for one or more of these three measurements. • In a CR response, the tumor volume is less than 13.5 mm3 for three consecutive measurements during the study. • Any animal with a CR response at the end of the study was additionally classified as a tumor-free survivor (TFS). • Animals were scored only once during the study for a PR or CR event and only as CR if both PR and CR criteria were satisfied. […]

Nc1ccn([C@@H]2O[C@H](CO)[C@@H](O)C2(F)F)c(=O)n1 [Gemcitabine]
0: CR (complete regression) | PR (partial regression) | TFS (tumor-free survivor) (end of study Day 56)
